How the values were obtained:
[1] = Fluorescence response of (4) to Zn^2+ concentration; assay type: binding; details: fluorescence emission
Excerpt: We believe that the steric strain in conformations that would allow the orbital alignment needed for conjugation may be detrimental to high quantum yield. 1-pyrenyldipyrrin ((4), PYDPY1), is more fluorescent and sterically less demanding than (3). […] Indeed, as a Zn^2+ sensor, (4) is unsurpassed in its effective concentration range with Zn^2+, thus providing a rarely found degree of sensitivity.
FIG. 5 is a graph of fluorescence response and Zn^2+ concentration and (4).

[2] = Fluorescence quantum yield of dipyrrins, free and with Zn^2+; details: even with Cd^2+; Table 1, FIG. 2
Excerpt: The conjugated (2) comprises a fluorophore with the […] moiety behaving as an ionphore. Benzaldehyde was used to form (2) because the properties shown by this type of sensing molecule with an benzene ring are representative of the general behavior of the family of compounds. In spite of the low fluorescence quantum yields of benzene, substituting benzene (ΦF=0.05±0.02) with a more intrinsically luminescent unit can make a great improvement in ΦF. An examples of another aromatic entity used instead of benzene is anthracene (ΦF0.27±0.03). When a […] attached to the benzene ring, the fluorescence quantum yield (ΦF) of (2) was very low and was determined to be 0.0011 due to the photo-induced electron transfer (PET), which is the intra-molecular quenching mechanism of an enamine group and an imine group in conjugate. When Zn^2+ bound with a […] moiety, PET was hindered and fluorescence emission intensity was recovered. […] Zn^2+, the fluorescence quantum yield was determined to be 0.07. […] (2), (3) and (4). The excitation wavelengths were 432, 475, 450 nm. The emission wavelengths were 496, 612, 497 and 599 nm for (2), (3) and (4). The ratio of fluorescence quantum yield [fluorescence quantum yield of metal ion/(2), (3) or (4) complex over fluorescence quantum yield of free ligand (10 μM)] was measured in acetonitrile.

[3] = Zn^2+ binding / complex formation (qualitative)

Row | Structure (SMILES) | Kd [1] | selectivity for Zn^2+ in comparison to other common metal ions [2] | binding of Zn^2+ (in words) [3]
1 | C1=CC(=C(c2ccc[nH]2)c2ccc3ccc4cccc5ccc2c3c45)N=C1 [(4), 1-pyrenyldipyrrin] | 20 µM |  | 
2 | C1=CC(=C(c2ccccc2)c2ccc[nH]2)N=C1 [Compound (2), 5-phenyl-4,6-dipyrrin] |  | Excellent selectivity | found to bind Zn^2+
